In patent US11091478B2 (Fochon Pharmaceuticals, Ltd., priority 2017, dated 2021):
pIC50: −log10 of the molar value.

Experiments:
[1] = test system: RS4;11 cells; assay: Cell proliferation assay (MTS), RS4;11 cells, 72 h; type: cell-based; settings: Homo sapiens, RS4-11, 72 h
How it was run: (§1)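 Proliferation was scored by MTS (2 h, then SDS stop, A490 with 650 nm reference) and IC50 derived. Compound ran at nine final concentrations from 1.5 to 10000 nM. DOHH2 were incubated 120 h and RS4;11 72 h, both plated at 5000 cells/well in RPMI-1640 plus 10% FBS.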

[2] = test system: DOHH2 cells; assay: Cell proliferation assay (MTS), DOHH2 cells, 120 h; type: cell-based; settings: Homo sapiens, DOHH-2, 120 h
How it was run: as §1

SMILES	pIC50 [1]	pIC50 [2]
CC1(C)CCC(CN2CCN(c3ccc(C(=O)NS(=O)(=O)c4cc5c(c([N+](=O)[O-])c4)N[C@@H](CN4CCC(N=S(C)(C)=O)CC4)CO5)c(Oc4cnc5[nH]ccc5c4)c3)CC2)=C(c2ccc(Cl)cc2)C1 [Example 2-125, (S)-2-((1H-pyrrolo[2,3-b]pyridin-5-yl)oxy)-4-(4-((4′-chloro-5,5-dimethyl-3,4,5,6-tetra-hydro-[1,1′-biphenyl]-2-yl)methyl)piperazin-1-yl)-N-((3-((4-((dimethyl(oxo)-λ^6-sulfanyl-idene)amino)piperidin-1-yl)methyl)-5-nitro-3,4-dihydro-2H-benzo[b][1,4]oxa-zin-7-yl)sulfonyl)benzamide]	7.72	7.37
CN=S1(=O)CCN(CC[C@@H]2COc3cc(S(=O)(=O)NC(=O)c4ccc(N5CCN(CC6=C(c7ccc(Cl)cc7)CC(C)(C)CC6)CC5)cc4Oc4cnc5[nH]ccc5c4)cc([N+](=O)[O-])c3N2)CC1 [Example 2-127]	7.64	7.38
CCN=S1(=O)CCN(CC[C@@H]2COc3cc(S(=O)(=O)NC(=O)c4ccc(N5CCN(CC6=C(c7ccc(Cl)cc7)CC(C)(C)CC6)CC5)cc4Oc4cnc5[nH]ccc5c4)cc([N+](=O)[O-])c3N2)CC1 [Example 2-128, (R)-2-((1H-pyrrolo[2,3-b]pyridin-5-yl)oxy)-4-(4-((4′-chloro-5,5-dimethyl-3,4,5,6-tetra-hydro-[1,1′-biphenyl]-2-yl)methyl)piperazin-1-yl)-N-((3-(2-(1-(ethylimino)-1-oxido-1λ^6-thiomorpholino)ethyl)-5-nitro-3,4-di-hydro-2H-benzo[b][1,4]oxazin-7-yl)sulfonyl) benzamide]	7.70	7.55
CC1(C)CCC(CN2CCN(c3ccc(C(=O)NS(=O)(=O)c4cc5c(c([N+](=O)[O-])c4)N[C@H](CCN4CCC(N=S(C)(C)=O)CC4)CO5)c(Oc4cnc5[nH]ccc5c4)c3)CC2)=C(c2ccc(Cl)cc2)C1 [Example 2-131, (R)-2-((1H-pyrrolo[2,3-b]pyridin-5-yl)oxy)-4-(4-((4′-chloro-5,5-dimethyl-3,4,5,6-tetra-hydro-[1,1′-biphenyl]-2-yl)methyl)piperazin-1-yl)-N-((3-(2-(4-((dimethyl(oxo)-λ^6-sulfa-nylidene)amino)piperidin-1-yl)ethyl)-5-nitro-3,4-dihydro-2H-benzo[b][1,4]oxazin-7-yl)sulfonyl)benzamide]	8.05	7.41
CC1(C)CCC(CN2CCN(c3ccc(C(=O)NS(=O)(=O)c4cc5c(c([N+](=O)[O-])c4)N[C@@H](Cc4ccccc4)CO5)c(Oc4cnc5[nH]ccc5c4)c3)CC2)=C(c2ccc(Cl)cc2)C1 [Example 2-132, (S)-2-((1H-pyrrolo[2,3-b]pyridin-5-yl)oxy)-N-((3-benzyl-5-nitro-3,4-dihydro-2H-benzo [b][1,4]oxazin-7-yl)sulfonyl)-4-(4-((4′-chloro-5,5-dimethyl-3,4,5,6-tetrahydro-[1,1′-biphenyl]-2-yl)meth-yl)piperazin1-yl)benzamide]	8.70	7.55
CC1(C)CCC(CN2CCN(c3ccc(C(=O)NS(=O)(=O)c4cc5c(c([N+](=O)[O-])c4)N[C@H](CNS(=O)(=O)C4CC4)CO5)c(Oc4cnc5[nH]ccc5c4)c3)CC2)=C(c2ccc(Cl)cc2)C1 [Example 2-138, (R)-2-((1H-pyrrolo[2,3-b]pyridin-5-yl)oxy)-4-(4-((4′-chloro-5,5-dimethyl-3,4,5,6-tetra-hydro-[1,1′-biphenyl]-2-yl)methyl)piperazin-1-yl)-N-((3-(cyclopropanesulfonamidometh-yl)-5-nitro-3,4-dihydro-2H-benzo[b][1,4]oxazin-7-yl)sulfonyl)benzamide]	7.14	6.78

The remaining molecules from weak to strong by pIC50 [1], led by results:

pIC50 [1]	SMILES	pIC50 [2]
7.85	COC(=O)N=S1(=O)CCN(CC[C@@H]2COc3cc(S(=O)(=O)NC(=O)c4ccc(N5CCN(CC6=C(c7ccc(Cl)cc7)CC(C)(C)CC6)CC5)cc4Oc4cnc5[nH]ccc5c4)cc([N+](=O)[O-])c3N2)CC1 [Example 2-130, methyl (R)-(4-(2-(7-(N-(2-((1H-pyrrolo[2,3-b]pyri-din-5-yl)oxy)-4-(4-((4′-chloro-5,5-dimethyl-3,4,5,6-tetrahydro-[1,1′-biphenyl]-2-yl)meth-yl)piperazin-1-yl)benzoyl)sulfamoyl)-5-nitro-3,4-dihydro-2H-benzo[b][1,4]oxazin-3-yl)ethyl)-1-oxido-1λ^6-thiomorpholin-1-ylidene)carbamate]	7.59
8.05	CC1(C)CCC(CN2CCN(c3ccc(C(=O)NS(=O)(=O)c4cc5c(c([N+](=O)[O-])c4)N[C@H](CCN4CCS(=O)(=NC6CC6)CC4)CO5)c(Oc4cnc5[nH]ccc5c4)c3)CC2)=C(c2ccc(Cl)cc2)C1 [Example 2-129, (R)-2-((1H-pyrrolo[2,3-b]pyridin-5-yl)oxy)-4-(4-((4′-chloro-5,5-dimethyl-3,4,5,6-tetra-hydro-[1,1′-biphenyl]-2-yl)methyl)piperazin-1-yl)-N-((3-(2-(1-(cylcopropylimino)-1-oxido-1λ^6-thiomorphlino)ethyl)-5-nitro-3,4-dihydro-2H-benzo[b][1,4]oxazin-7-yl)sulfanoyl)benzamide]	7.80
8.30	CC1(C)CCC(CN2CCN(c3ccc(C(=O)NS(=O)(=O)c4cc5c(c([N+](=O)[O-])c4)N[C@H](CCN4CCS(=O)(=O)CC4)CO5)c(Oc4cnc5[nH]ccc5c4)c3)CC2)=C(c2ccc(Cl)cc2)C1 [Example 2-126, (R)-2-((1H-pyrrolo[2,3-b]pyridin-5-yl)oxy)-4-(4-((4′-chloro-5,5-dimethyl-3,4,5,6-tetra-hydro-[1,1′-biphenyl]-2-yl)methyl)piperazin-1-yl)-N-((3-(2-(1,1-dioxidothiomorpholino)ethyl)-5-nitro-3,4-dihydro-2H-benzo[b] [1,4]oxazin-7-yl)sulfonyl)benzamide]	7.96
8.70	COC(=O)NC[C@@H]1COc2cc(S(=O)(=O)NC(=O)c3ccc(N4CCN(CC5=C(c6ccc(Cl)cc6)CC(C)(C)CC5)CC4)cc3Oc3cnc4[nH]ccc4c3)cc([N+](=O)[O-])c2N1 [Example 2-134, methyl (R)-((7-(N-(2-((1H-pyrrolo[2,3-b]pyridin-5-yl)oxy)-4-(4-((4′-chloro-5,5-dimethyl-3,4,5,6-tetrahydro-[1,1′-biphenyl]-2-yl)methyl)piperazin-1-yl)benzoyl)sulfamoyl)-5-nitro-3,4-dihydro-2H-benzo[b][1,4]oxazin-3-yl)methyl)carbamate]	7.41
9.00	CC1(C)CCC(CN2CCN(c3ccc(C(=O)NS(=O)(=O)c4cc5c(c([N+](=O)[O-])c4)N[C@@H](Cc4ccccn4)CO5)c(Oc4cnc5[nH]ccc5c4)c3)CC2)=C(c2ccc(Cl)cc2)C1 [Example 2-133, (S)-2-((1H-pyrrolo[2,3-b]pyridin-5-yl)oxy)-4-(4-((4′-chloro-5,5-dimethyl-3,4,5,6-tetra-hydro-[1,1′-biphenyl]-2-yl)methyl)piperazin-1-yl)-N-((5-nitro-3-(pyridin-2-ylmethyl)-3,4-dihydro-2H-benzo[b][1,4]oxazin-7-yl)sulfonyl)benzamide]	8.10
